Among the test systems are EKVX NSCLC; SF-268 CNS; SK-MEL-28 melanoma; RPMI-8226 leukemia; ACHN renal; UACC-62 melanoma; LOX IMVI melanoma; SK-MEL-5 melanoma.
Assay in all cases: inhibition of tumour cell growth, NCI panel, 48 h

SMILES strings stand for the structures. Several values for one entry are separate records, joined by “and”; a condition that tells them apart may be missing. Equal values may be shown once.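 96-well plates; 48 h exposure; 5 concentrations. Endpoints by linear interpolation between flanking doses. Not reached: highest tested concentration assigned. Abbreviation: GI50, concentration required for 50% inhibition of growth. Definition used: TGI = concentration required for complete inhibition of growth.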 *1 amine or outer side, *2 acyl side, *3 side chain or, on linkers, in order; H or OH if unused. Where a SMILES comes first, the peptide text is derived from it. Bridges are numbered along the chain shown (N, C = ends). Roman numbers before positions name the chains, in order. [ ]: non-standard residue; d: D form. Actinocin(9to1) = Cc1c2oc3c(C)ccc(C(=O)[*:1])c3nc-2c(C(=O)[*:2])c(N)c1=O; NMeT = CN[CH](C(=O)O)[CH](C)O; Sar = CNCC(=O)O

For `Cc1ccc2c(-c3ccnc(Nc4ccccc4)n3)c(-c3ccc(F)cc3)nn2n1`, the GI50 with EKVX NSCLC is 6530 nM; with SF-268 CNS, 11.1 µM; with SK-MEL-28 melanoma, 12.2 µM; with RPMI-8226 leukemia it was 10.5 µM; in the assay with ACHN renal, 1260 nM; in the assay on UACC-62 melanoma, 7.82 µM. Further, the GI50 was 5920 nM in the assay with LOX IMVI melanoma and 4.75 µM in the assay on SK-MEL-5 melanoma. In addition, the TGI in the assay on EKVX NSCLC, in the assay with SF-268 CNS, in the assay with SK-MEL-28 melanoma, with RPMI-8226 leukemia, with ACHN renal and in the assay with UACC-62 melanoma was above 25 µM each time. Besides, the TGI with LOX IMVI melanoma was above 25 µM; in the assay with SK-MEL-5 melanoma it was 11.4 µM.
Consider `Cc1c2oc3c(C)ccc(C(=O)NC4C(=O)NC(C(C)C)C(=O)N5CCCC5C(=O)N(C)CC(=O)N(C)C(C(C)O)C(=O)OC4C)c3nc-2c(C(=O)NC2C(=O)NC(C(C)C)C(=O)N3CCCC3C(=O)N(C)CC(=O)N(C)C(C(C)O)C(=O)OC2C)c(N)c1=O` (stereo unspecified) (I: TVP[Sar][NMeT] / II: TVP[Sar][NMeT]; ester I:1-I:C, II:1-II:C; linker I:N-II:N via Actinocin(9to1); configuration not given here), for which the GI50 is 2560 nM and > 1000 nM in the assay with EKVX NSCLC; 0.473 µM and > 1 µM in the assay with SK-MEL-5 melanoma. In addition, the TGI is 25 µM and > 1 µM in the assay with EKVX NSCLC; above 63 µM with SF-268 CNS; 4.96 µM and > 1 µM in the assay with SK-MEL-28 melanoma; 10.6 µM and > 1 µM in the assay on RPMI-8226 leukemia; above 26.6 µM in the assay on ACHN renal; 1.54 µM with UACC-62 melanoma. Also, the TGI with LOX IMVI melanoma was 7.84 µM and > 1 µM; with SK-MEL-5 melanoma it was 2.9 µM and > 1 µM.
Turning to `N#CC1=C(N)Oc2c(ccc3ccccc23)C1c1ccccc1` (stereo unspecified), the GI50 was 315 nM with EKVX NSCLC; 0.166 µM with SF-268 CNS; 0.944 µM with SK-MEL-28 melanoma; 0.0417 µM with RPMI-8226 leukemia; 68.1 nM with ACHN renal; 0.0567 µM with UACC-62 melanoma. The GI50 was 57.5 nM in the assay with LOX IMVI melanoma and 0.0346 µM in the assay with SK-MEL-5 melanoma. Further, the TGI in the assay with EKVX NSCLC was determined as 20.1 µM; in the assay with SF-268 CNS, 15.7 µM; with SK-MEL-28 melanoma it was 20.5 µM; in the assay with RPMI-8226 leukemia, 15 µM; with ACHN renal it was 14.8 µM; with UACC-62 melanoma, 16 µM. The TGI in the assay on LOX IMVI melanoma worked out at 3.25 µM; in the assay with SK-MEL-5 melanoma, 0.451 µM.
`Cc1cc(-c2nc3sccn3c2/C=N/N=C(N)N)c(C)s1`: the GI50 in the assay with EKVX NSCLC is 10500 nM; with SF-268 CNS, 16.6 µM; in the assay with SK-MEL-28 melanoma, 16.5 µM; with RPMI-8226 leukemia it was 13.3 µM; with ACHN renal it was 19100 nM; in the assay on UACC-62 melanoma, 14.9 µM. In addition, the GI50 in the assay on LOX IMVI melanoma is 16400 nM; in the assay on SK-MEL-5 melanoma it was 14.6 µM. Moreover, the TGI in the assay on EKVX NSCLC worked out at 23.4 µM; in the assay on SF-268 CNS it was 31.7 µM; in the assay with SK-MEL-28 melanoma, 31.5 µM; in the assay with RPMI-8226 leukemia it was 33.2 µM; in the assay with ACHN renal, 36.8 µM; in the assay on UACC-62 melanoma it was 28.2 µM. Further, the values for the TGI in the assay with LOX IMVI melanoma and in the assay on SK-MEL-5 melanoma were 30.5 µM and 30 µM, respectively.
`C=C1C(=O)O[C@H]2[C@H]1CC/C(COC(=O)C(=O)c1cn(C)c3ccc(Cl)cc13)=C\CC[C@@]1(C)O[C@@H]21`: the GI50 was 1920 nM in the assay on EKVX NSCLC; 1.56 µM in the assay with SF-268 CNS; 1.49 µM with SK-MEL-28 melanoma; 0.306 µM in the assay on RPMI-8226 leukemia; 1070 nM in the assay on ACHN renal; 0.356 µM with UACC-62 melanoma. Moreover, the GI50 in the assay with LOX IMVI melanoma is 191 nM; in the assay with SK-MEL-5 melanoma, 1.55 µM. Further, the TGI was found to be 4.29 µM with EKVX NSCLC; 4.56 µM in the assay with SF-268 CNS; 3.72 µM in the assay on SK-MEL-28 melanoma; 1.19 µM with RPMI-8226 leukemia; 2.5 µM with ACHN renal; 2.08 µM with UACC-62 melanoma. For the same compound, the results for the TGI in the assay with LOX IMVI melanoma and in the assay on SK-MEL-5 melanoma were 0.387 µM and 2.91 µM, respectively.
On to `CC1=C(C(=O)Nc2ccc(Cl)c(Cl)c2)C(c2cccc(Cl)c2)NC(=O)N1` (stereo unspecified), for which the GI50 is 7840 nM in the assay on EKVX NSCLC; 7.85 µM with SF-268 CNS; above 17 µM in the assay with RPMI-8226 leukemia; 9070 nM in the assay on ACHN renal; 5.9 µM with UACC-62 melanoma; 7660 nM in the assay on LOX IMVI melanoma. The GI50 with SK-MEL-5 melanoma was 8.93 µM. The TGI was 16.2 µM in the assay with EKVX NSCLC; 17.4 µM in the assay with SF-268 CNS; above 30.1 µM in the assay on RPMI-8226 leukemia; 20.8 µM in the assay with ACHN renal; 12.3 µM in the assay on UACC-62 melanoma; 16.2 µM in the assay with LOX IMVI melanoma. In addition, the TGI in the assay on SK-MEL-5 melanoma came to 17.4 µM.
Regarding `COc1cc(N2CCC(N3CCN(C)CC3)CC2)ccc1Nc1ncnc(Nc2ccccc2S(=O)(=O)C(C)C)n1`, the GI50 is 4.39 µM in the assay with SF-268 CNS; 10.9 µM in the assay with SK-MEL-28 melanoma; 10.9 µM in the assay with RPMI-8226 leukemia; 2380 nM in the assay with ACHN renal; 8.35 µM in the assay with UACC-62 melanoma; 2280 nM in the assay with LOX IMVI melanoma. In the assay on SK-MEL-5 melanoma, the GI50 was 4.62 µM. In addition, the TGI in the assay on SF-268 CNS is 28.7 µM; in the assay on SK-MEL-28 melanoma it was 34.9 µM; with RPMI-8226 leukemia, 41.9 µM; with ACHN renal, 14.8 µM; in the assay with UACC-62 melanoma, 27.1 µM; in the assay on LOX IMVI melanoma it was 7.62 µM. The compound further returned a TGI with SK-MEL-5 melanoma of 18.1 µM.
For `COc1ccc(NC([Se])=NC23CC4CC(CC(C4)C2)C3)cc1`, the GI50 in the assay with EKVX NSCLC is 1970 nM; in the assay on SF-268 CNS, 3.55 µM; in the assay with RPMI-8226 leukemia, 0.845 µM; in the assay on ACHN renal, 1990 nM; in the assay on UACC-62 melanoma it was 1.43 µM; in the assay on LOX IMVI melanoma, 1910 nM. Also, the GI50 with SK-MEL-5 melanoma is 0.558 µM. Further, the TGI is 4.74 µM with EKVX NSCLC; above 100 µM in the assay with SF-268 CNS; 3.8 µM in the assay with RPMI-8226 leukemia; 4.71 µM in the assay on ACHN renal; 4.96 µM in the assay with UACC-62 melanoma; 5.09 µM in the assay on LOX IMVI melanoma. In addition, the TGI with SK-MEL-5 melanoma was 1.79 µM.
Consider `O=C1c2ccccc2-c2oc(=O)c3ccccc3c21`, for which the TGI with EKVX NSCLC, in the assay with SK-MEL-28 melanoma, with RPMI-8226 leukemia, in the assay with ACHN renal, with UACC-62 melanoma and in the assay on LOX IMVI melanoma was above 100 µM throughout. In the assay with SK-MEL-5 melanoma, the TGI was above 100 µM.
On to `COc1cc(Nc2nc3ccccc3nc2NS(=O)(=O)c2ccc(NC(=O)c3ccc(C)c(OC)c3)cc2)cc(OC)c1`, for which the GI50 was 4620 nM and 935 nM in the assay on EKVX NSCLC; 3.98 µM and 12.3 µM and 1.96 µM with RPMI-8226 leukemia; 4.19 µM and 11.4 µM and 1.71 µM in the assay on SK-MEL-5 melanoma. Moreover, the TGI was above 100 µM with SF-268 CNS; 84.5 µM and 53.8 µM and > 10 µM in the assay on RPMI-8226 leukemia; 48.7 µM and 62.8 µM and > 10 µM in the assay on ACHN renal; above 100 µM in the assay on LOX IMVI melanoma; 38.4 µM and 28.7 µM and > 6.54 µM in the assay on SK-MEL-5 melanoma.
